Source: ChEMBL document CHEMBL6153138, “Discovery of Novel Aromatic Urea-Imidazole Salt Derivatives for Cancer Therapy via Targeting ERK1/2” (J Med Chem, 2025)
Active and inactive are the calls of the source. No cut-off for these calls is given here.

Legend:
HepG2 [1] = assay: Growth inhibition of human HepG2 cells at 5 uM incubated for 48 hrs by CCK-8 method relative to control; assay type: functional; details: read-out: GI
[2] = molecular target: Mitogen-activated protein kinase 1 (Homo sapiens, UniProt P28482); assay: Inhibition of ERK2 (unknown origin) incubated for 60 mins by luminescence based ADP-Glo kinase assay
5637 [3] = assay: Growth inhibition of human 5637 cells at 5 uM incubated for 48 hrs by CCK-8 method relative to control; assay type: functional; details: read-out: GI
A549 [4] = assay: Growth inhibition of human A549 cells at 5 uM incubated for 48 hrs by CCK-8 method relative to control; assay type: functional; details: read-out: GI
MCF7 [5] = assay: Growth inhibition of human MCF7 cells at 5 uM incubated for 48 hrs by CCK-8 method relative to control; assay type: functional; details: read-out: GI
MCF7 [6] = assay: Antiproliferative activity against human MCF7 cells incubated for 48 hrs by CCK-8 method; assay type: functional, cell-based; details: MCF7, 48 h
5637 [7] = assay: Antiproliferative activity against human 5637 cells incubated for 48 hrs by CCK-8 method; assay type: functional, cell-based; details: Homo sapiens, 5637, 48 h
A549 [8] = assay: Antiproliferative activity against human A549 cells incubated for 48 hrs by CCK-8 method; assay type: functional, cell-based; details: A549, 48 h
HepG2 [9] = assay: Antiproliferative activity against human HepG2 cells incubated for 48 hrs by CCK-8 method; assay type: functional, cell-based; details: HepG2, 48 h
[10] = molecular target: Mitogen-activated protein kinase 3 (Homo sapiens, UniProt P27361); assay: Inhibition of ERK1 (unknown origin) incubated for 60 mins by luminescence based ADP-Glo kinase assay
MCF7 [11] = assay: Induction of autophagy in human MCF7 cells assessed as increase in Beclin-1 level at 5 uM by Western blot analysis; assay type: functional, cell-based
MCF7 [12] = assay: Activation of ERK1/2 pathway in human MCF7 cells assessed as increase in EGF-induced c-Myc phosphorylation at 5 uM incubated for 30 mins by Western blot analysis; assay type: cell-based
HCC1937 = assay: Antiproliferative activity against human HCC1937 cells incubated for 48 hrs by CCK-8 method; assay type: functional, cell-based; details: HCC1937, 48 h
MCF7 [13] = assay: Activation of ERK1/2 pathway in human MCF7 cells assessed as increase in EGF-induced ERK phosphorylation at 5 uM incubated for 30 mins by Western blot analysis; assay type: cell-based; details: filed as activator
4T1 [14] = assay: Antitumor activity against mouse 4T1 cells implanted in female BALB/c mouse model assessed as tumor growth inhibition at 50 mg/kg, ip qd measured for 18 days relative to control; assay type: functional; details: 4T1, 432 h, time 18 day, read-out: TGI
MCF7 [15] = assay: Induction of autophagy in human MCF7 cells assessed as increase in ATG5 level at 5 uM by Western blot analysis; assay type: functional, cell-based
MCF7 [16] = assay: Activation of ERK1/2 pathway in human MCF7 cells assessed as increase in EGF-induced p90RSK phosphorylation at 5 uM incubated for 30 mins by Western blot analysis; assay type: cell-based
MCF-10A = assay: Antiproliferative activity against human MCF-10A cells incubated for 48 hrs by CCK-8 method; assay type: functional, cell-based
MDA-MB-468 = assay: Antiproliferative activity against human MDA-MB-468 cells incubated for 48 hrs by CCK-8 method; assay type: functional, cell-based; details: MDA-MB-468, 48 h
MCF7 [17] = assay: Induction of autophagy in human MCF7 cells assessed as increase in LC3B-II level at 5 uM by Western blot analysis; assay type: functional, cell-based
4T1 [18] = assay: Antiproliferative activity against mouse 4T1 cells incubated for 48 hrs by CCK-8 method; assay type: functional, cell-based; details: 4T1, 48 h

Chain of Mitogen-activated protein kinase 3 (P27361 whole entry): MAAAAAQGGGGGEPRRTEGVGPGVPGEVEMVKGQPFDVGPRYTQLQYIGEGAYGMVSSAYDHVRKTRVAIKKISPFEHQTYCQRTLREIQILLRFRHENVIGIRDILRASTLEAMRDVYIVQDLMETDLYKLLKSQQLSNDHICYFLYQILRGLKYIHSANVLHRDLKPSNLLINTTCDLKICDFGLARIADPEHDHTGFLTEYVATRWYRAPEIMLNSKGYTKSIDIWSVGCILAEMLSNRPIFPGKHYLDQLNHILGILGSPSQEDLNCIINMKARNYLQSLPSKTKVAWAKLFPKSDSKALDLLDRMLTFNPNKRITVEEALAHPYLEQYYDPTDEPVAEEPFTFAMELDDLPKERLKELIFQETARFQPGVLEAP
Chain of Mitogen-activated protein kinase 1 (P28482 whole entry): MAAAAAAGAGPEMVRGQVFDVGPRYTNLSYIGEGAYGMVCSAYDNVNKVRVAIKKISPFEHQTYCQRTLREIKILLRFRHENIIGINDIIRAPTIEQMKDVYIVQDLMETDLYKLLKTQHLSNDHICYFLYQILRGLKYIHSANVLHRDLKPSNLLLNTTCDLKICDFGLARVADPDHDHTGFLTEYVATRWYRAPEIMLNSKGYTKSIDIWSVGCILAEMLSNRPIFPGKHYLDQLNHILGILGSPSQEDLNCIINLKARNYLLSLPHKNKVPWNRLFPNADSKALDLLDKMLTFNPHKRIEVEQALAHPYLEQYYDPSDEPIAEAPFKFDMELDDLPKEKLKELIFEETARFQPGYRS

| SMILES | inhibition of growth at 5 µM (HepG2 [1]) [%] | IC50 [2] [nM] | inhibition of growth at 5 µM 5637 [3] [%] | inhibition of growth at 5 µM (A549 [4]) [%] | inhibition of growth at 5 µM (MCF7 [5]) [%] | IC50 (MCF7 [6]) [µM] | further results |
| --- | --- | --- | --- | --- | --- | --- | --- |
| CC[C@@H](C)[C@@H](Cn1cc[n+](Cc2ccccc2)c1)NC(=O)Nc1cc(C(F)(F)F)cc(C(F)(F)F)c1 | 47.2 | 483 | 85.6 | 8.36 | 86.9 |  |  |
| CC(C)[C@@H](Cn1c[n+](Cc2ccccc2)c2ccccc21)NC(=O)Nc1cc(C(F)(F)F)cc(C(F)(F)F)c1 | 39.5 | 285 | 56.5 | 30.2 | 91.9 | 3.37 |  |
| CC[C@@H](C)[C@@H](Cn1c[n+](Cc2ccccc2)c2ccccc21)NC(=O)Nc1cc(C(F)(F)F)cc(C(F)(F)F)c1 | 100 | 283 | 99.5 | 97.8 | 100 | 2.68 | IC50 5637 [7]: 2.94 µM; IC50 (A549 [8]): 3.92 µM; IC50 (HepG2 [9]): 2.33 µM |
| CC[C@@H](C)[C@@H](Cn1cc(C(F)(F)F)[n+](Cc2ccccc2)c1)NC(=O)Nc1cc(C(F)(F)F)cc(C(F)(F)F)c1 | 13.9 | 507 | 96.8 | 23.5 | 100 | 3.48 | IC50 5637 [7]: 3.47 µM |
| O=C(Nc1cc(C(F)(F)F)cc(C(F)(F)F)c1)N[C@@H](Cc1ccccc1)Cn1cc[n+](Cc2ccccc2)c1 | 38.1 | 272 | 61.9 | 9.26 | 82 |  |  |
| O=C(Nc1cc(C(F)(F)F)cc(C(F)(F)F)c1)N[C@@H](Cc1ccccc1)Cn1cc(C(F)(F)F)[n+](Cc2ccccc2)c1 | 31.2 | 297 | 26.4 | 13.5 | 19.4 |  |  |
| CC[C@@H](C)[C@@H](Cn1cc[n+](Cc2ccccc2)c1C)NC(=O)Nc1cc(C(F)(F)F)cc(C(F)(F)F)c1 | 71.3 | 406 | 17.6 | 8.26 | 64 |  |  |
| CC(=O)N[C@@H](Cc1ccccc1)Cn1cnc2ccccc21 |  | > 10000 |  |  |  |  | IC50 [10]: > 10 µM |
| CC(C)Nc1cc(-c2c[nH]c(C(=O)N[C@H](CO)c3cccc(Cl)c3)c2)c(Cl)cn1 [ULIXERTINIB] |  |  |  |  |  | > 10 | Activity (MCF7 [11]): Active; Activity (MCF7 [12]): inactive; IC50 (HCC1937): > 10 µM; Activity (MCF7 [13]): Active; IC50 5637 [7]: > 10 µM; IC50 (A549 [8]): 5.39 µM; inhibition in vivo at 50 mg/kg (4T1 [14]): 26.9%; Activity (MCF7 [15]): Active; Activity (MCF7 [16]): inactive; IC50 (MCF-10A): > 10 µM; IC50 (MDA-MB-468): > 10 µM; IC50 (HepG2 [9]): 6.12 µM; Activity (MCF7 [17]): Active; IC50 (4T1 [18]): > 10 µM |
| O=C(N[C@@H](Cc1ccccc1)Cn1c[n+](Cc2cccc3ccccc23)c2ccccc21)c1ccccc1 |  | > 10000 |  |  |  |  | IC50 [10]: > 10 µM |
| Cc1n(C[C@H](Cc2ccccc2)NC(=O)Nc2cc(C(F)(F)F)cc(C(F)(F)F)c2)cc[n+]1Cc1ccccc1 | 20.8 | 376 | 12.8 | 2.07 | 40.5 |  |  |
| Cc1n(C[C@@H](NC(=O)Nc2cc(C(F)(F)F)cc(C(F)(F)F)c2)C(C)C)cc[n+]1Cc1ccccc1 | -4.95 | 535 | 21.1 | 7.87 | 7.92 |  |  |
| O=C(N[C@@H](Cc1ccccc1)Cn1cnc2ccccc21)c1ccccc1 |  | > 10000 |  |  |  |  | IC50 [10]: > 10 µM |
| CC(C)[C@@H](Cn1cc[n+](Cc2ccccc2)c1)NC(=O)Nc1cc(C(F)(F)F)cc(C(F)(F)F)c1 | 24.5 | 606 | 31.5 | 7.18 | 55.7 |  |  |
| O=c1[nH]cc(F)c(=O)[nH]1 [FLUOROURACIL] |  |  |  |  |  | 6 | IC50 (HCC1937): 5.67 µM; IC50 5637 [7]: 7.4 µM; IC50 (MCF-10A): > 10 µM; IC50 (MDA-MB-468): > 10 µM; IC50 (HepG2 [9]): > 10 µM; IC50 (4T1 [18]): > 10 µM |
| O=C(Nc1cc(C(F)(F)F)cc(C(F)(F)F)c1)N[C@@H](Cc1ccccc1)Cn1c[n+](Cc2ccccc2)c2ccccc21 | 35.3 | 206 | 56.8 | 50.6 | 99.5 | 1.55 |  |
| CC(=O)N[C@@H](Cc1ccccc1)Cn1c[n+](Cc2cccc3ccccc23)c2ccccc21 |  | > 10000 |  |  |  |  | IC50 [10]: > 10 µM |
